From article PMC6251916, “CKD-506, a novel HDAC6-selective inhibitor, improves renal outcomes and survival in a mouse model of systemic lupus erythematosus” (Scientific Reports, 2018)

Key:
HDAC6 and HDAC1 = test system: HDAC6 and HDAC1; set-up: method as in PMID 22262760; conditions: cited from earlier work
[1] = set-up: method as in PMID 27646843; conditions: cited from earlier work
NZB/W F1 female mice [2] = assay: Murine SLE model: survival, severe proteinuria, UP/C; format: in vivo, mouse; conditions: methylprednisolone 5 mg/kg/day i.p.
Experimental: (§1) Survival had been monitored until 42 weeks of age.
During the experiments, urine protein levels had been measured every 2 weeks. Fresh urine was collected by performing abdominal massages. Urine protein was measured with the Coomassie Brilliant Blue method as described in our previous study. Urine creatinine was measured using a DRI-CHEM 3000 Colorimetric analyzer (Fujifilm, Tokyo, Japan) with the urine diluted in deionized water (1:100 dilution).

NZB/W F1 female mice [3] = assay: Murine SLE model: BUN and anti-dsDNA antibody levels; format: in vivo, mouse; conditions: methylprednisolone 5 mg/kg/day
Experimental: as §1
Blood samples had been collected from mice under isoflurane anesthesia every 4 weeks (at 24, 28, 32, 36, 40 weeks of age and autopsy), and the obtained serum samples had been kept at −70 °C until the analysis.

NZB/W F1 female mice [4] = assay: Murine SLE model: kidney histopathology (H&E, PAS, Masson trichrome); format: in vivo, mouse; conditions: methylprednisolone 5 mg/kg/day
From the text: as §1
Kidneys were harvested from mice at the end of the study (at 43–44 weeks of age). For light microscopy, the tissues were fixed in 10% neutral buffered formalin, embedded in paraffin wax, sectioned at a thickness of 5 μm and stained with H&E (BBC Biochemical, Mount Vernon, WA, USA). Periodic acid/Schiff (PAS stain kit, BBC Biochemical) staining and Masson trichrome (BBC Biochemical) staining were used for the detection of […] and fibrosis, respectively. Inflammatory cell infiltration and mesangial proliferation were scored on a 4-point scale as 0 (none), 1+ (mild), 2+ (moderate), 3+ (moderate to severe) and 4+ (severe).

NZB/W F1 female mice [5] = assay: Murine SLE model: flow cytometry of splenocytes; format: in vivo, mouse; conditions: methylprednisolone 5 mg/kg/day
From the text: Single cell suspensions were obtained from the spleens of NZB/W F1 mice at autopsy (at 43–44 weeks of age). The splenocytes were stained with PerCP-Cy5.5-conjugated anti-mouse CD3e (PerCP-cy5.5-CD3e, eBioscience, San Diego, CA, USA), fluorescein isothiocyanate (FITC)-conjugated anti-mouse CD4 (FITC-CD4, BD Biosciences, San Jose, CA, USA), PE-cyanine7-conjugated anti-mouse CD8a (eBioscience), allo-phycocyanin (APC)-conjugated anti-mouse CD25 (BD Biosciences) and PE-conjugated anti-mouse CD138 (BD Biosciences).
T cell profile was analyzed as described previously; briefly, we examined proportions of Th1 cells (CD4^+CD25^+T-bet^+), Th2 cells (CD4^+CD25^+GATA-3^+), Th17 cells (CD4^+CD25^+ROR-γt^+), and Treg cells (CD4^+CD25^+Foxp3^+). To analyze T helper subsets, the splenocytes were stained with antibodies to CD4 and CD25 (FITC-conjugated anti-mouse CD4 and APC-conjugated anti-mouse CD25, BD Biosciences). Cells were fixed and permeabilized prior to staining with T-bet, GATA-3, ROR-γt and Foxp3 antibodies (PE-, BD Biosciences).

NZB/W F1 female mice [6] = assay: Murine SLE model: serum cytokine levels (Milliplex); format: in vivo, mouse
Experimental: Serum samples were assayed using Milliplex® MAP Kits (Millipore) for granulocyte macrophage-colony stimulating factor (GM-CSF), interferon-γ (IFN-γ), interleukin-1α (IL-1α), IL-1β, IL-10, IL-12(p70), IL-15, IL-17a, IL-2, IL-4, IL-6, tumor necrosis factor α (TNF-α), transforming growth factor beta 1 (TGF-β1), IL-22, IL-23, IFN-inducible protein 10 (IP-10 (CXCL10)) and chemokine (C-C motif) ligand 2 (CCL2 (MCP-1)).

NZB/W F1 female mice [7] = assay: Murine SLE model: cytokine levels in kidney extracts; format: in vivo, mouse; conditions: group P: methylprednisolone 5 mg/kg/day; at autopsy; mean ± SD; n = 13
Experimental: The kidneys were weighed and then transferred into dPBS (Welgene) supplemented with anti-protease Complete TM cocktail (Boehringer) using 12.5 μl of dPBS per milligram of wet weight tissue. Samples were homogenized twice using an Automill TK-AM5 freeze-crushing cell homogenizer (W 280 mm × D 390 mm × H 290 mm, Tokken Inc., Chiba, Japan) at 1,400 rpm for 90 seconds and then centrifuged at 16,000 × g for 15 min at 4 °C. The supernatants were collected and total protein concentrations were determined in the kidney extracts using a bicinchoninic acid (BCA) protein assay kit™ (Pierce). Total protein concentrations of the kidney extracts were adjusted to 2 mg/dl and used for the analysis of IFN-γ, IL-10, IL-15, IL-17, IL-1β, IL-4, IL-6, IP-10, MCP-1, CCL4, RANTES, TNF-α and sCD40L with Milliplex® MAP Kits (Millipore).

NZB/W F1 female mice [8] = assay: Murine SLE model: serum chemistry and necropsy; conditions: group P: methylprednisolone 5 mg/kg/day; serum at autopsy; mean ± SD
Experimental: Control mice received 150 μL of vehicle (Ethanol: Kolliphor® EL: saline = 1:1:8) and were subjected to the same schedule. Survival rate and incidence of severe proteinuria (percent individual mice with urine protein ≥300 mg/dL) were calculated. Survival had been monitored until 42 weeks of age.

[9] = group P: methylprednisolone 5 mg/kg/day, at autopsy, mean ± SD, n = 13

SMILES: O=C(CCCCCCNC(=O)c1cnc(N(c2ccccc2)c2ccccc2)nc1)NO [ACY-1215]
- selectivity for HDAC6 and HDAC1 at IC50 (HDAC6 and HDAC1): 11 fold
- significant adverse effects reported in clinical trials [1]: grade 3 anemia and neutropenia

SMILES: C[C@H]1C[C@@H]2[C@H]([C@@H](O)C[C@@]3(C)[C@H]2CC[C@]3(O)C(=O)CO)[C@@]2(C)C=CC(=O)C=C12 [methylprednisolone, reference compound]
- Survival rate at the end of the study (NZB/W F1 female mice [2]; 42-weeks of age): 93.3%
- incidence of severe proteinuria (urine protein >300 mg/dl) (NZB/W F1 female mice [2]; 42 weeks of age): 20%
- Levels of BUN vs vehicle (NZB/W F1 female mice [3]; 36 weeks of age): significantly lower
- Levels of BUN vs vehicle (NZB/W F1 female mice [3]; at autopsy): significantly lower
- Degree of inflammatory cell infiltration in kidneys vs vehicle (NZB/W F1 female mice [4]): significantly lower
- ratio of CD4+CD8−/CD4−CD8+ T cells in spleen vs vehicle (NZB/W F1 female mice [5]): significantly lower
- fewer CD4−CD8− cells compared with group vehicle (NZB/W F1 female mice [5]; spleen): 4.3%
- fewer CD138+ cells compared with group vehicle (NZB/W F1 female mice [5]; spleen): 16.3%
- Serum IFN-γ (NZB/W F1 female mice [6]; [9]): 0.07 ± 0.24 pg/mL
- Serum IL-1α (NZB/W F1 female mice [6]; [9]): 666.21 ± 527.20 pg/mL
- Serum IL-1β (NZB/W F1 female mice [6]; [9]): 0.65 ± 2.34 pg/mL
- Serum IL-2 (NZB/W F1 female mice [6]; [9]): 0.09 ± 0.34 pg/mL
- Serum IL-4 (NZB/W F1 female mice [6]; [9]): 1.49 ± 0.20 pg/mL
- Serum IL-6 (NZB/W F1 female mice [6]; [9]): 3.36 ± 3.30 pg/mL
- Serum IL-10 (NZB/W F1 female mice [6]; [9]): 18.41 ± 12.97 pg/mL
- Serum IL-12(70) (NZB/W F1 female mice [6]; [9]): 1.04 ± 3.76 pg/mL
- Serum IL-15 (NZB/W F1 female mice [6]; [9]): 45.25 ± 14.91 pg/mL
- Serum IL-17 (NZB/W F1 female mice [6]; [9]): 3.59 ± 1.73 pg/mL
- Serum IL-22 (NZB/W F1 female mice [6]; [9]): 17.68 ± 16.19 pg/mL
- Serum IL-23 (NZB/W F1 female mice [6]; [9]): 22.31 ± 61.77 pg/mL
- Serum TGF-β1 (NZB/W F1 female mice [6]; [9]): 66067.78 ± 18777.09 pg/mL
- Serum TNF-α (NZB/W F1 female mice [6]; [9]): 1.57 ± 2.07 pg/mL
- Mean serum levels of CCL2 vs vehicle (NZB/W F1 female mice [6]; methylprednisolone 5 mg/kg/day, 36 weeks of age, difference not statistically significant): lower
- Kidney extract CCL2 (NZB/W F1 female mice [7]): 19.91 ± 11.71 pg/mL
- Kidney extract CCL4 (NZB/W F1 female mice [7]): 0.60 ± 1.84 pg/mL
- Kidney extract IFN-γ (NZB/W F1 female mice [7]): 16.91 ± 5.10 pg/mL
- Kidney extract IL-1β (NZB/W F1 female mice [7]): 4.80 ± 2.85 pg/mL
- Kidney extract IL-4 (NZB/W F1 female mice [7]): 0.06 ± 0.08 pg/mL
- Kidney extract IL-6 (NZB/W F1 female mice [7]): 2.95 ± 0.59 pg/mL
- Kidney extract IL-10 (NZB/W F1 female mice [7]): 12.14 ± 2.02 pg/mL
- Kidney extract IL-15 (NZB/W F1 female mice [7]): 40.90 ± 9.01 pg/mL
- Kidney extract IP-10 (NZB/W F1 female mice [7]): 50.64 ± 15.63 pg/mL
- Kidney extract RANTES (NZB/W F1 female mice [7]): 9.77 ± 15.22 pg/mL
- Kidney extract TNF-α (NZB/W F1 female mice [7]): 0.07 ± 0.24 pg/mL
- Ca (NZB/W F1 female mice [8]): 9.35 ± 0.53 mg/dL
